Like-named read-outs stand apart in the source and are kept apart here. Marks after values point to notes of the source that are not given here.
Assays:
[1] = system: Carrageenan-Induced Cellular Infiltration; assay: Carrageenan-induced air pouch inflammation; type: in vivo, Lewis rats; conditions: 100 mg/kg; 3 hours after carrageenan
Excerpt: In the following Examples where mice were used, they were male Balb/c mice (20-28 g), and where rats were used, they were male Lewis rats (180-210 g). All mice and rats were obtained from Charles River Breeding Laboratories, Kingston, N.Y. Within a single experiment, mice and rats were sex and age matched.
The compounds of Formula (IA) were used either as the free base or in the appropriate salt form. Levamisole was used as the hydrochloride salt. The compounds were homogenized in 0.5% tragacanth. Compounds were administered by gavage at the indicated dose in a final volume of 10 ml/kg. Nordihydroguaiaretic acid (NDGA) was solubilized in dimethylacetamide and diluted with olive oil for subcutaneous administration.
Rats were shaved on the dorsal flank, and then injected subcutaneously one day later with 20 ml of air to form a defined pouch, by the method of Sedgwick et al., J. Pathology, 141, 483-495 (1983). The air pouch was reinflated as necessary over the next 6 days. To assay anti-inflammatory activity, animals were treated orally with test compound or vehicle (10 ml/kg) one hour before injection of 2.0 ml of a 2.0% carrageenan suspension containing 200 units/ml penicillin and 100 »g/ml streptomycin into the air pouch. In other experiments, 5 ml of 0.1% arachidonic acid in 0.2 M bicarbonate buffer was injected two hours after drug treatment. Animals were sacrificed using CO₂ three hours after instillation of irritant. The exudate was then aspirated from the pouch and neutrophil count and differential cell count were measured.

Cyclooxygenase = Cyclooxygenase activity (PGD2) in 10,000 x g supernatant of RBL-1 cells; type: biochemical; conditions: text b252; RBL-1 cell extracts; read-out: IC₅₀ PGD₂ production
Method: Harvested cells were washed with 50 mM sodium phosphate buffer, pH 7.0, containing 1 mM EDTA and 0.1% gelatin, resuspended in fresh buffer (5 x 10⁷ cells/ml) and disrupted by nitrogen cavitation using the Parr bomb at 750 psi for 10 min. The broken cell extract was then centrifuged at 10,000 x g for 20 minutes and the supernatant centrifuged at 100,000 x g for 60 minutes. Aliquots (0.25 mls) of the supernatant were preincubated with or without drugs for 10 min, after which 10 ul CaCl₂ (50 mM) was added and the reaction was initiated with 2.5 ul of 2.5 mM arachidonic acid-1-¹⁴C (final concentration was 25 mM; specific activity 20,000 dpm/nmole). After incubation for 3 min at 37°C, the reaction was terminated by addition of 2 volumes (0.5 ml) ice cold acetone and the sample was allowed to deproteinize on ice for 10 min prior to centrifugation at 1,000 x g for 10 min. The deproteinized supernatant was adjusted to pH 3.5 with 2N formic acid and extracted with 2 volumes of ice cold ethyl acetate. […] Arachidonic acid, 5-HETE, di-HETE and PGD₂ were quantified with a Berthold LB 2832 autoscanner.

[2] = system: Production of PGE₂ by Mouse Peritoneal Exudate Cells; assay: PGE2 production by peritoneal macrophages; type: cell-based
Method: For in vitro experiments, compounds were dissolved at appropriate concentrations in ethanol or DMSO (dimethylsulfoxide) (final concentration <1.0%) and then diluted to final concentrations using the buffers indicated in the text.
Mice were injected intraperitoneally with 350 »g Corynebacterium parvum and the peritoneal exudate cell population was harvested 12-14 days later by peritoneal lavage with cold phosphate-buffered saline, and resuspended in Eagles minimal essential medium supplemented with 5% fetal calf serum. […] Test compounds were added (100 ul) to bring the final volume to 1.0 ml. Lipopolysaccharide (5 »g/ml) was then added to stimulate PGE₂ synthesis. After incubation at 37°C for 2 hours, cell-free supernatants were harvested, placed in polypropylene tubes and frozen at -20°C until assayed for their PGE₂ content using a commercial radioimmunoassay kit. IC₅₀ is the concentration that inhibits 50% of control activity.

[3] = system: Experimental Allergic Encephalomyelitis; assay: Experimental allergic encephalomyelitis, hindleg paralysis; type: in vivo, Female Lewis rats; conditions: 60 Mg/kg/day, p.o. days 0-4, 7-11, 14-18
Method: EAE is induced in Female (Charles River) Lewis rats by a single intradermal injection of 0.1 ml of an encephalitogenic emulsion consisting of equial parts of a 50% w/v homogenate of guinea pig spinal cord and mid-brain in 0.5% aqueous phenol and Freund's complete adjuvant (4 mg/ml killed, dried M. butyricum) into a hindpaw (left) footpad. […] Any animal which becomes paralyzed during the course of the experiment is considered to have developed EAE whether or not the paralysis is permanent. Test compounds are administered daily beginning on the day of injection, for 19 days, exclusive of days 5, 6 12 and 13. Drug activity is determined by comparing the indicidence of EAE (paralysis) of the treated group with a control (vehicle) group. The level of significant difference between the treated groups and control groups is determined by a Chi-square test using a 2x2 contingency table. Body weight changes from day 0 are also statistically compared to the control group using a Student "t" test.

Compound: Fc1ccc(-c2nc3n(c2-c2ccncc2)CCS3)cc1 [Compound 1, 5-(4-pyridyl)-6-(4-fluorophenyl)-2,3-dihydroimidazo[2,1-b]thiazole]
- Cellular Infiltrate (Total x 10⁻⁶) MN [1]: 5.5 ± 3.8^e x 10⁻⁶
- Cellular Infiltrate (Total x 10⁻⁶) PMN [1]: 2.6 ± 1.3^d x 10⁻⁶
- Exudate Volume [1]: 1.0 ± 0.9 mL
- IC50 (Cyclooxygenase): 100 µM
- IC50 ([2]; Macrophage, read-out: IC₅₀ production of PGE₂ by inflammatory macrophages): 700 nM
- IC50 ([2]; Peritoneal macrophage, Table 10, LPS-stimulated, C. parvum-elicited peritoneal exudate cells, read-out: IC₅₀ (»M) production of PGE₂): 700 nM
- HINDLEG PARALYSIS - CUMULATIVE INCIDENCE DAY 9 TO 13 [3]: 10/12
- HINDLEG PARALYSIS - CUMULATIVE INCIDENCE DAY 14 TO 18 [3]: 0/11**

— patent publication EP0231622B1, “Inhibition of the 5-lipoxygenase pathway” (priority 1985, dated 1987)
